Tests used:
mtsABAD HEK293 cells [1] = experiment: Alamar Blue cell viability assay; type: cell-based, human; conditions: 50 μM compound
Protocol: Cell viability was assessed via fluorescence change using the commercially available Alamar Blue from ThermoFisher. HEK293 cells overexpressing mts17β-HSD10 were cultured in phenol-red free media (10% FBS, 1 mM sodium pyruvate, 100 units penicillin, 0.1 mg/mL streptomycin and 2 mM L-glutamine) and seeded at a density of 10,000 cells per well (100 μL, 96 well plates). […] Treated cells were then incubated at 37° C. and CO2 (5%) for 24 hours before the assay was performed as per the manufacturer's instructions. Fluorescence was measured at 530 nm excitation and 590 nm emission using a SpectraMaxM2e spectrophotometer.

17β-HSD10 = target: T1, 17β-HSD10 (Homo sapiens, UniProt Q99714); experiment: 17β-HSD10 (ABAD) enzyme inhibition assay, NADH oxidation read at 340 nm (primary screen and dose response); type: biochemical; conditions: for EC50 / Max. Effect (%) / Hill Slope / Max. Fit / Min. Fit: recombinant 17βHSD10 enzyme assay; for Hill Slope / Max. Fit / Min. Fit: curve fit
T1 construct: Histev (histidine tag with TEV site) (N, cleaved yes); made in house; host or cells: E. coli BL21-CodonPlus
T1 sequence (Q99714 1-261): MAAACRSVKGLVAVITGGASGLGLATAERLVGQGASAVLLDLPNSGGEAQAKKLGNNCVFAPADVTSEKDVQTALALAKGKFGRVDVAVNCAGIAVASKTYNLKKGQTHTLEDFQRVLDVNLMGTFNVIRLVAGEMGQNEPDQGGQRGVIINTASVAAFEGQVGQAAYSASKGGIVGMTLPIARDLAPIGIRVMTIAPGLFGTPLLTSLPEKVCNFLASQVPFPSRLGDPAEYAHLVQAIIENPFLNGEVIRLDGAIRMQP
Procedure, shortened: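 Tag-cleaved recombinant human 17β-HSD10 (2.5 nM) preincubated 15 min with compound in Tris pH 7.4, NaCl, DTT, Tween, BSA (catalase in some runs), then 100 μM acetoacetyl-CoA and NADH added. NADH oxidation by A340 fall: 35 min endpoint for screening at 10 μM; continuous 45 min for dose response.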

mtsABAD HEK293 cells [2] = experiment: Lactate dehydrogenase (LDH) cytotoxicity assay; type: cell-based, human; conditions: 50 μM compound
Protocol: Cell cytotoxicity was assessed via the measurement of lactate dehydrogenase leakage into the culture medium using a commercially available kit from Pierce (Thermo Scientific cat no. 88953). This was carried out in accordance with the kit guidelines, with the activity of Lactate Dehydrogenase (LDH) being calculated from the change in absorbance at […] as NADH is reduced. HEK293 cells overexpressing mts17β-HSD10 were cultured in phenol-red free media (10% fetal bovine serum (FBS), 1 mM sodium pyruvate, 100 units penicillin, 0.1 mg/mL streptomycin and 2 mM L-glutamine) and seeded at a density of 10,000 cells per well (100 μL, 96 well plates). […] Treated cells were incubated at 37° C. and CO2 (5%) for 24 hours before the LDH assay was performed as per the manufacturer's instructions. Spontaneous control (water) and maximum control (lysis buffer) used in accordance with the kit guide. Absorbance was measured at 490 nm and 680 nm using a SpectraMaxM2e spectrophotometer. The measured LDH activity was used to calculate % cytotoxicity using the following equation: […]

Row | SMILES | Alamar Blue % Viability (50 μM Dose) (mtsABAD HEK293 cells [1]) [%] | EC50 (17β-HSD10) [nM] | Max. Effect (%) (17β-HSD10) | Hill Slope (17β-HSD10) | Max. Fit (17β-HSD10) | Min. Fit (17β-HSD10) | LDH % Toxicity (50 μM Dose) (mtsABAD HEK293 cells [2]) [%] | Alamar Blue % Viability (50 μM Dose) (mtsABAD HEK293 cells [1]; listed as ESC1002206-01) [%] | LDH % Toxicity (50 μM Dose) (mtsABAD HEK293 cells [2]; listed as ESC1002206-01) [%] | 17β-HSD10 / ABAD activity in words (SAR discussion) (17β-HSD10) | Alamar Blue % Viability (50 μM Dose) (mtsABAD HEK293 cells [1]; listed as ESC1002205-01) [%] | LDH % Toxicity (50 μM Dose) (mtsABAD HEK293 cells [2]; listed as ESC1002205-01) [%]
1 | Cc1ccsc1C(=O)N1CCC[C@H]1c1ccccc1-c1ccc(OC(F)(F)F)cc1 [ESC1002315] | 84.77 | 1150 | 95 | 1.1 | 97 | 0 | 5.91 | – | – | – | – | –
2 | CC(C)CN(C(=O)c1ccccc1F)c1cccc(N(C)Cc2ccncc2)c1 [ESC1002211] | 82.553 | > 20000 | 40 | – | – | – | 5.501 | – | – | – | – | –
3 | CCc1ccc(CN(C)c2cccc(N(CC(C)C)C(=O)c3ccccc3F)c2)cn1 [ESC1002213] | 81.860 | > 20000 | 15 | – | – | – | 8.010 | – | – | – | – | –
4 | Cc1ccc(-c2ccccc2[C@@H]2CCCN2C(=O)c2sccc2C)cc1 [ESC1002337] | 85.13 | 209 | 102 | 1.3 | 99 | −7 | 4.10 | – | – | – | – | –
5 | CC(C)CN(C(=O)c1ccccc1F)c1cccc(N(C)Cc2ccn[nH]2)c1 [ESC1002206] | – | – | 79 | 0.93 | 107 | 0 | – | 95.609 | 5.918 | – | – | –
6 | CC(C)CN(C(=O)c1ccccc1F)c1ccc2c(c1)N(Cc1cnc[nH]1)CCC2 [ESC1002236, 2-fluoro-N-[1-(1H-imidazol-5-ylmethyl)-3,4-dihydro-2H-quinolin-7-yl]-N-isobutyl-benzamide] | 82.69 | > 20000 | 30 | – | – | – | 3.94 | – | – | – | – | –
7 | Cc1ccsc1C(=O)N1CCC[C@H]1c1ccccc1-c1ccc(Cl)c(C(F)(F)F)c1 [ESC1002327] | 90.36 | 1450 | 89 | 0.84 | 100 | −7 | 4.61 | – | – | – | – | –
8 | CC(C)CN(C(=O)c1ccccc1F)c1cccc(N(C)Cc2cncs2)c1 [ESC1002208] | 65.577 | > 20000 | 50 | – | – | – | 20.084 | – | – | – | – | –
9 | COc1ccc(C(=O)N(CC(C)C)c2cccc(N(C)Cc3cnc[nH]3)c2)cc1 [ESC1002182, N-[3-[1H-imidazol-5-ylmethyl(methyl)amino]phenyl]-N-isobutyl-4-methoxy-benzamide] | 87.643 | 331 | 99 | 0.8 | 103 | 0 | 4.733 | – | – | – | – | –
10 | Cc1ccsc1C(=O)N1CCC[C@H]1c1ccccc1-c1ccc(N2CCOCC2)cc1 [ESC1002318] | 85.76 | 1910 | 91 | 1.1 | 98 | −1 | 2.55 | – | – | – | – | –
11 | Cc1ccsc1C(=O)N1CCC[C@H]1c1ccccc1-c1ccc(S(C)(=O)=O)cc1 [ESC1002319] | 82.10 | 5890 | 79 | 1 | 101 | −2 | 5.17 | – | – | – | – | –
12 | COc1ccccc1-c1ccccc1[C@@H]1CCCN1C(=O)c1sccc1C [ESC1002325] | 89.12 | 309 | 98 | 0.87 | 100 | −11 | 4.36 | – | – | – | – | –
13 | CC(C)CN(C(=O)C1CCCCC1)c1cccc(N(C)Cc2cnc[nH]2)c1 [ESC1002166, N-[3-[1H-imidazol-5-ylmethyl(methyl)amino]phenyl]-N-isobutyl-cyclohexanecarboxamide] | 82.237 | 955 | 99 | 0.93 | 104 | 0 | 4.554 | – | – | less potent | – | –
14 | CC(=O)N(CC(C)C)c1cccc(N(C)Cc2cnc[nH]2)c1 [ESC1002171, N-[3-[1H-imidazol-5-ylmethyl(methyl)amino]phenyl]-N-isobutyl-acetamide] | 86.843 | > 20000 | 34 | – | – | – | 5.933 | – | – | – | – | –
15 | CC(C)CN(C(=O)c1ccccc1F)c1cccc(N(C)Cc2cccnc2)c1 [ESC1002210] | 93.200 | 6170 | 72 | 1.4 | 82 | 0 | 5.509 | – | – | – | – | –
16 | Cc1ccsc1C(=O)N1CCC[C@H]1c1ccccc1-c1ccc(C(=O)N(C)C)cc1 [ESC1002317] | 83.39 | 912 | 96 | 1 | 99 | 0 | 4.58 | – | – | – | – | –
17 | CC(C)CN(C(=O)c1ccccc1F)c1cccc(N(C)Cc2cncn2C)c1 [ESC1002199] | 89.524 | > 20000 | 13 | – | – | – | 5.028 | – | – | – | – | –
18 | CC(C)CN(C(=O)c1ccccc1F)c1cccc(N(C)Cc2ccc(O)nc2)c1 [ESC1002212] | 94.278 | > 20000 | 16 | – | – | – | 5.576 | – | – | – | – | –
19 | Cc1ccsc1C(=O)N1CCC[C@@H]1c1ccccc1-c1ccn[nH]1 [ESC1002091] | 84.920 | 3160 | 84 | 1.2 | 93 | – | 5.395 | – | – | – | – | –
20 | CC(C)CN(C(=O)c1ccccc1F)c1cccc(N(C)Cc2ncc[nH]2)c1 [ESC1002201] | 80.481 | > 20000 | 41 | – | – | – | 5.842 | – | – | – | – | –
21 | CCN(C(=O)c1ccccc1F)c1cccc(N(C)Cc2cnc[nH]2)c1 [ESC1002234, N-ethyl-2-fluoro-N-[3-[1H-imidazol-5-ylmethyl(methyl)amino]phenyl]benzamide] | 86.98 | 1480 | 94 | 0.96 | 101 | −3 | 4.81 | – | – | – | – | –
22 | CC(C)CN(C(=O)c1ccccc1F)c1cccc(N(C)Cc2ccn[nH]2)c1 [ESC1002205] | – | – | 96 | 1.1 | 97 | 0 | – | – | – | – | 95.933 | 5.840
23 | CN(C)CCN(C(=O)c1ccccc1F)c1cccc(N(C)Cc2c[nH]cn2)c1 [ESC1002334, N-[2-(dimethylamino)ethyl]-2-fluoro-N-[3-[1H-imidazol-4-ylmethyl(methyl)amino]phenyl]benzamide] | 92.96 | > 20000 | 23 | – | – | – | 5.17 | – | – | – | – | –
24 | CC(C)CN(C(=O)c1ccccc1F)c1cccc(N(C)Cc2nccn2C)c1 [ESC1002202] | 81.531 | 10000 | 57 | 1.3 | 79 | 0 | 2.542 | – | – | – | – | –
25 | COc1ccc(-c2ccccc2[C@@H]2CCCN2C(=O)c2sccc2C)cc1 (single isomer, unassigned) [ESC1002332] | 87.68 | 166 | 99 | 1 | 100 | 0 | 3.52 | – | – | – | – | –

Reference: patent US20260132123A1, “ABAD INHIBITOR COMPOUNDS” (UNIVERSITY COURT OF THE UNIVERSITY OF ST ANDREWS, priority 2021, published 2026)
